Experimental data published in US20260347348A1, “JAK1/JAK2/TYK2 Inhibitors For Topical Treatment of Dermatological Diseases” (Hangzhou Highlightll Pharmaceutical Co., Ltd, priority 2022, published 2026).
Like-named read-outs stand apart in the source and are kept apart here. Each block holds one compound with its values, some of them ahead of it.

How the values were obtained:
TYK2 [1] = target: T1, TYK2 (Homo sapiens, UniProt P29597); assay: TYK2 biochemical test (33P-ATP filter binding kinase assay); details: room temperature, 2 hours
Procedure: (§1) The tests were conducted by Reaction Biology Corp, Malvern, PA (Anastassiadis et al. Nat Biotechnol. 2011; 29(11):1039-45). The step is briefly described as follows.
(§2) Basic reaction buffer: 20 mM Hepes (pH 7.5), 10 mM MgCl2, 1 mM EGTA, 0.02% Brij35, 0.02 mg/ml BSA, 0.1 mM Na3VO4, 2 mM DTT and 1% DMSO. The required cofactor was added to each kinase reaction respectively.
(§3) • 1. Preparing the designated substrate in the newly prepared basic reaction buffer; • 2. Transferring the required cofactor to the above matrix solution; • 3. Transferring the designated kinase to the substrate solution and mixing well slightly; • 4. Transferring a compound of formulae I-III in DMSO to the kinase reaction mixture with Acoustic technique (Echo550; nanoliter range), culturing for 20 minutes at room temperature; • 5. Introducing ^33P-ATP (specific activity: 10 μCi/μl) to the reaction mixture to trigger a reaction; • 6. Culturing at room temperature and conducting a kinase reaction for 2 hours; • 7. Plotting the reaction on P81 ion exchange paper; • 8. Testing the kinase activity with a filter binding assay.

JAK1 [2] = target: T2, JAK1 (Homo sapiens, UniProt P23458); assay: JAK1 biochemical test (33P-ATP filter binding kinase assay); details: room temperature, 2 hours
Procedure: as §1, §2, §3

TYK2/JAK1/JAK2 = TYK2/JAK1/JAK2 biochemical tests, comparative summary
Procedure: as §1, §2, §3

TYK2 [3] = target: T1, TYK2; assay: TYK2 cellular ELISA assay using NK92 cells (IL-12 and IL-18 stimulated IFNγ excretion); format: cell-based; details: IL-12 2 ng/ml and IL-18 5 ng/ml, 24 hours
Procedure: Purpose: test cellular TYK2 activity using IL-12 and IL-18 stimulated IFNγ excretion assay in NK92 cells.
• 1. Replace NK92 cell media with IL-2 by media without IL-2, maintain overnight; • 2. Plate NK92 cells to 96-well plate at density of ~150,000 cell/well; • 3. Add different concentrations of test article to wells, maintain in incubator at 37° C. and 5% CO2 for 1 hour; • 4. Add IL-12 (final concentration: 2 ng/ml) and IL-18 (final concentration: 5 ng/ml) to stimulate for 24 hours in the above incubator; • 5. After 24 hours, centrifuge at 2000 rpm for 5 min, take the supernatant and analyze according to instructions of the ELISA kit.

JAK1 [4] = target: T2, JAK1; assay: JAK1 cellular ELISA assay using PBMC cells (IL-6 stimulated STAT3 phosphorylation); format: cell-based; details: IL-6 100 ng/ml, 25 min
Procedure: Purpose: test cellular JAK1 activity using the IL-6 stimulated STAT3 phosphorylation assay in PBMC cells.
• 1. Plate PBMC cells to 96-well plate at density of ~300,000 cell/well; • 2. Add different concentrations of test article to wells, maintain in incubator at 37° C. and 5% CO2 for 1 hour; • 3. Add IL-6 (final concentration: 100 ng/ml) to stimulate for 25 min in the above incubator; • 4. After stimulation, transfer the suspension to 1.5 mL tube, centrifuge at 200 g for 5 min, collect cells, add 100 μL 1× lysate, lyse on ice for 1 hour; • 5. Centrifuge at 4° C. and 12000 rpm for 10 min, take the supernatant and analyze according to instructions of the ELISA kit.

[5] = Human liver microsome stability assay; format: in vitro ADME; details: liver microsomes
Procedure: The assay was conducted following procedures as below: • 1. Prepared 8 sample plates of 96-well plates, named as T0, T3, T6, T9, T15, T30, NCF30, BLANK. • 2. Dispensed 100 μl/well human microsomes to each plate. • 3. Dispensed 2 μL compound or control working solution/well to each plate (T0, T3, T6, T9, T15, T30, NCF30) except matrix blank and incubation plates at 37° C. for about 10 min. The final concentration of test compound was 1 μM. For T0, added 600 (μL/well) of cold stop solution immediately. • 4. Added 98 μL 100 mM potassium phosphate buffer/well to NCF30 plate, incubated at 37° C., start reaction. • 5. After pre-warming, dispensed NADPH regenerating system to 96-well plate as reservoir according to the plate map. Then added 98 μL/well to every plate (Blank, T30, T15, T9, T6, T3, T0) to start reaction. • 6. The reaction was stopped by the addition of 600 μl of cold stop solution at 0, 3, 6, 9, 15 and 30 minutes. Samples were shaked for 10 min and then centrifuged at 3220 g for 20 min. The supernatant was taken from each well and diluted with dilution solution before being analyzed by LC/MS/MS. • 7. […]
The slope value, k, was determined by linear regression of the natural logarithm of the remaining percentage of the parent drug vs. incubation time curve. The in vitro t1/2 was determined from the slope value: […]

[6] = Mini-pig dermal pharmacokinetic study; format: in vivo, Guangxi Bama mini-pigs; details: for AUC(0-t): 15 mg/cm^2, topical ointment
Procedure: The aim of this study was to obtain the distribution of test articles in mini-pig after topical administration. Test articles were formulated as ointment and then applied to 2 female Guangxi Bama mini-pigs (8-12 kg) (Wujiang Tian yu Biological Technology). Briefly, total area estimated to be approximately 10% of the total body surface area were clipped free of hair before treatment using electric clippers. The test article was dosed evenly to the skin with 15 mg/cm^2 at 0 h, 8 h and 24 h. Test articles were removed before next dosing. Blood and skin samples were collected at 24 h (pre-dosing), 25 h, 28 h, 32 h, 48 h and 96 h. The blood was taken via peripheral vein of each animal into pre-chilled tube containing potassium (K2) EDTA as anticoagulant. Exposed skin was washed using ethanol and then wiped with dry cotton swab before skin sample collection. Eight samples of dosing skin were drilled with a biopsy punch (0.7 cm diameter) for each time point. Epidermis and dermis were separated and the eight samples from the same time point were pooled together and homogenized. All the above samples and homogenate were quantified by LC-MS/MS analysis.

JAK2 = JAK2 (Homo sapiens, UniProt O60674); assay: JAK2 biochemical test (33P-ATP filter binding kinase assay); details: room temperature, 2 hours
Procedure: as §1, §2, §3

JAK3 = target: T3, JAK3 (Homo sapiens, UniProt P52333); assay: JAK3 biochemical test (33P-ATP filter binding kinase assay); details: room temperature, 2 hours
T3 sequence (P52333 1-1124): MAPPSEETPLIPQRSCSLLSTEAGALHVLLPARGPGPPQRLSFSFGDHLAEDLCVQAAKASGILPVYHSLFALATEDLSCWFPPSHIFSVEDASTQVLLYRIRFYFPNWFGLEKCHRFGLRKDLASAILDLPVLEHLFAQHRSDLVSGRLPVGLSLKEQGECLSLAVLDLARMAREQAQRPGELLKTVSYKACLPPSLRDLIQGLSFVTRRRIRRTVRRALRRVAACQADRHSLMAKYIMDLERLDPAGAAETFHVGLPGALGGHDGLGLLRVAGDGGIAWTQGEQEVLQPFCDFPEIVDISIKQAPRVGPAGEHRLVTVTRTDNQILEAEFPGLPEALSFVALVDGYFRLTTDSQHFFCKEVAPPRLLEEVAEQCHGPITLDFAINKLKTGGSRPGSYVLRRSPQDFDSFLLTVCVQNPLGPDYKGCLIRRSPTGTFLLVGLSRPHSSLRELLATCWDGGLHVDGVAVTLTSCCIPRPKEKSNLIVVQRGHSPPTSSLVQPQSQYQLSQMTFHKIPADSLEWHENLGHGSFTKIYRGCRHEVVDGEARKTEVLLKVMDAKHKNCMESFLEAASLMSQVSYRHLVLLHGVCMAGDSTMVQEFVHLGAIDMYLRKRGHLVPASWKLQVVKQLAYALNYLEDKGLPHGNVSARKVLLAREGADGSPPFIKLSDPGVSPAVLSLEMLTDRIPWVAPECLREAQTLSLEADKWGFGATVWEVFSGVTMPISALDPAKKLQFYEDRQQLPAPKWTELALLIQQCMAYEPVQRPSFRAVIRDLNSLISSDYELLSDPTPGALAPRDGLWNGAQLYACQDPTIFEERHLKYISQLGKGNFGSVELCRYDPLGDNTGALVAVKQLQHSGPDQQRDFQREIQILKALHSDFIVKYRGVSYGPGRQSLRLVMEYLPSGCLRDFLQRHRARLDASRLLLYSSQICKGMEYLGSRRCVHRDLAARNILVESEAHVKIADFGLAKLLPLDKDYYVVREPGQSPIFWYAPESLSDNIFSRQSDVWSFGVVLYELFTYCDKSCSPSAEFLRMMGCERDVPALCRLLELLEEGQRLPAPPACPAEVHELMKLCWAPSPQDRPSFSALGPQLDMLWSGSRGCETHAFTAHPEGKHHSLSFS
Procedure: as §1, §2, §3

psoriasis = details: cited from earlier work
[7] = topical formulation, 1.2-37.6 g per application, twice a day; cited from earlier work

T2 sequence (P23458 whole entry): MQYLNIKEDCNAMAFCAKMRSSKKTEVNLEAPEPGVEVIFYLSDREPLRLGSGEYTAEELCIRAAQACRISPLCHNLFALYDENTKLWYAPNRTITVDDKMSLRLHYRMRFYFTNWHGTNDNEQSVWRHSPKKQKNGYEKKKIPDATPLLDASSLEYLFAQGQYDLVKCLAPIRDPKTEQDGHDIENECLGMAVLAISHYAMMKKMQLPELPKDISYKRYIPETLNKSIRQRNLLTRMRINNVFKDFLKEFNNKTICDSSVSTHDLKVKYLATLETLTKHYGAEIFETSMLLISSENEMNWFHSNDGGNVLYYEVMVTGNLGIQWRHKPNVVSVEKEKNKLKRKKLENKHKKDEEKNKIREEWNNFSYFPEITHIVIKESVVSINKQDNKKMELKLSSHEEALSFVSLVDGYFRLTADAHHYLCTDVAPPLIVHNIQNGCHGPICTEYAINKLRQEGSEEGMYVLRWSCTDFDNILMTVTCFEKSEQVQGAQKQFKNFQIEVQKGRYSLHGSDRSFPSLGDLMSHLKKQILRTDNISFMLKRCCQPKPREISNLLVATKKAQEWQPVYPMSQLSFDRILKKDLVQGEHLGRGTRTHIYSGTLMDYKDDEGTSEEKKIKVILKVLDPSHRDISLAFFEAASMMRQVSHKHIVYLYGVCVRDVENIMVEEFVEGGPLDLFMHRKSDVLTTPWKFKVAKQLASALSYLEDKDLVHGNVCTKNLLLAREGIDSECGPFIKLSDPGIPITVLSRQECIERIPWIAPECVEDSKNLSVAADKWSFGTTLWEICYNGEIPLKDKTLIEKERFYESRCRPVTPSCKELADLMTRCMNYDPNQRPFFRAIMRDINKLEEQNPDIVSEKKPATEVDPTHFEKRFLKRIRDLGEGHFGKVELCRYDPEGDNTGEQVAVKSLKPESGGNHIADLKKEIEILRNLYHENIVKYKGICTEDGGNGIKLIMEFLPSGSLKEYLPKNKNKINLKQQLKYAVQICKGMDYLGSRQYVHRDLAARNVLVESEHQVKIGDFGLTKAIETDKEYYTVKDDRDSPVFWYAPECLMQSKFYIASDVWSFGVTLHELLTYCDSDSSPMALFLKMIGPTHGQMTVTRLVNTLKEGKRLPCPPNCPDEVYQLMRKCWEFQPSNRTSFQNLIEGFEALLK
T1 sequence (P29597 whole entry): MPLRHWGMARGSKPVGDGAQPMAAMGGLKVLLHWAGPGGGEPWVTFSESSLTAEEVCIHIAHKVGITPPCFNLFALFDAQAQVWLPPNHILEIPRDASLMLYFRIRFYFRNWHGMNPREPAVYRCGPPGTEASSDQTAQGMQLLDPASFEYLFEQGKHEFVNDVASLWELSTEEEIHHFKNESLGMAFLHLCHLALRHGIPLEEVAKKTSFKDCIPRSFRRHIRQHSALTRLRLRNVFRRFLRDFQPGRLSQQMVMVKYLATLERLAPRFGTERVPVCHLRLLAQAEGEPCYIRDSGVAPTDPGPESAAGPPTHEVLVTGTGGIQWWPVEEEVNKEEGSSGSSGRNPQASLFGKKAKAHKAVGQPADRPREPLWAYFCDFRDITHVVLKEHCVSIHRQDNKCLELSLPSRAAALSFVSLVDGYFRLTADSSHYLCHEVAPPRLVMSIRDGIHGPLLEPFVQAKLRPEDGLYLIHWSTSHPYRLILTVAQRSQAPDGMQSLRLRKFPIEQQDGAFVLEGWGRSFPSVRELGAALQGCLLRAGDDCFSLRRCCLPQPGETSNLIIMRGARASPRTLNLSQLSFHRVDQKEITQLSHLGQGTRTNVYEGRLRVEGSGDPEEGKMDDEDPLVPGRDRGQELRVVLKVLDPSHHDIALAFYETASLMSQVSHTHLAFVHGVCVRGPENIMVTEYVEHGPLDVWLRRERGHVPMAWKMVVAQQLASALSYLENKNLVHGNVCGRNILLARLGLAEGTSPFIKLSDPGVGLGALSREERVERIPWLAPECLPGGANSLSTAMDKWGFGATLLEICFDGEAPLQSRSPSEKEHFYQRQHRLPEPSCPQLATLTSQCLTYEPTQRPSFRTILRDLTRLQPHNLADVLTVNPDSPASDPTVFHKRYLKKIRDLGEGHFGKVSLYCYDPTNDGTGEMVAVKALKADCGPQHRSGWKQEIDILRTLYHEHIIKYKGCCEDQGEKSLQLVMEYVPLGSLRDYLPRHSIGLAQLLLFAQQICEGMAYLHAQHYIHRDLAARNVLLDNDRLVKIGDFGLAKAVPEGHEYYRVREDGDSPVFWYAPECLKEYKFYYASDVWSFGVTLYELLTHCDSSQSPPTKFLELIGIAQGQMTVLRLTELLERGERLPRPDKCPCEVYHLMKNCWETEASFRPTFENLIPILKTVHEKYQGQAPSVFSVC
Sequence of JAK2 (O60674 whole entry): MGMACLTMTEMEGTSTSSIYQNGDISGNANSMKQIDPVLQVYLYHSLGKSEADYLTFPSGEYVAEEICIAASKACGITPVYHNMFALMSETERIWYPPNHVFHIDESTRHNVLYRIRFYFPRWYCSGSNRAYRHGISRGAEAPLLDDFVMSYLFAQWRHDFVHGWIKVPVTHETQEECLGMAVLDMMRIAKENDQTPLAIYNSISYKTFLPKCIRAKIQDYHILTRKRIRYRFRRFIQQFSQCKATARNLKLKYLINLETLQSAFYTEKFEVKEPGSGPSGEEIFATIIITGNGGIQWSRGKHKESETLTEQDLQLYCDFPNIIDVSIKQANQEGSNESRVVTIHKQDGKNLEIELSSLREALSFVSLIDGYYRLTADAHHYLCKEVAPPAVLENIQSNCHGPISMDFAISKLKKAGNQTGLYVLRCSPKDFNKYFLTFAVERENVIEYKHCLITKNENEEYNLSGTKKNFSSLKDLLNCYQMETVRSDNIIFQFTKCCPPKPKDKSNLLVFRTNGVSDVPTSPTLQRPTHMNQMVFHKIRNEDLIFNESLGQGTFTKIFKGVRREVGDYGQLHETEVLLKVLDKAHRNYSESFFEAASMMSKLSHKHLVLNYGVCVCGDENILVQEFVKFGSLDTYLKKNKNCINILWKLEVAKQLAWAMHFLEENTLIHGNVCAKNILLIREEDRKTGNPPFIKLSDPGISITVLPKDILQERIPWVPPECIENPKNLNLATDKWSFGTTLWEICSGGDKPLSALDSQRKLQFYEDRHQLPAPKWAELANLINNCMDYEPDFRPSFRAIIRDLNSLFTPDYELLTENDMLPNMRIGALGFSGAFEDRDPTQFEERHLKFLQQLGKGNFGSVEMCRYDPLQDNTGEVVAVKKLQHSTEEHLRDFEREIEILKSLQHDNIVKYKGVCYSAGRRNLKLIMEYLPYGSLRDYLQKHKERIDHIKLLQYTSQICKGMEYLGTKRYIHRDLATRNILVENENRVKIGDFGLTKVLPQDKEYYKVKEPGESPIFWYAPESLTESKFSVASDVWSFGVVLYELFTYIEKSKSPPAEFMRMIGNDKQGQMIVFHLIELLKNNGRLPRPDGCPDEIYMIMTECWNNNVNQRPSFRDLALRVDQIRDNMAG

IC50 (TYK2 [1]): < 1 nM
IC50 (JAK1 [2]): < 1 nM
IC50 (TYK2 [3]): < 10 nM
IC50 (JAK1 [4]): < 500 nM
half-life at 1 µM [5]: 21 min
microsomal CLint at 1 µM ([5]; read-out: in vitro CLint(mic)): 65.9 µL/min/mg
AUC(0-t) ([6]; minipig, plasma, topical or ocular, 15 mg/cm^2 at 0 h, 8 h and 24 h, plasma, read-out: Plasma AUC0-last): 0.103 µg·h/mL
AUC(0-t) ([6]; minipig, topical or ocular, 15 mg/cm^2 at 0 h, 8 h and 24 h, dermis, read-out: Dermis AUC0-last): 517 µg·h/mL
AUC(0-t) ([6]; minipig, topical or ocular, 15 mg/cm^2 at 0 h, 8 h and 24 h, epidermis, read-out: Epidermis AUC0-last): 3520 µg·h/mL
Kp ([6]; minipig, topical or ocular, topical ointment, 15 mg/cm^2 at 0 h, 8 h and 24 h, read-out: Dermis/Plasma ratio (AUC)): 5020
SMILES: Cc1cnc(Nc2cnn(C)c2)nc1-c1cnn([C@H](CC#N)C2CCCC2)c1 [Compound 4, (R)-3-cyclopentyl-3-(4-(5-methyl-2-((1-methyl-1H-pyrazol-4-yl)amino)pyrimidin-4-yl)-1H-pyrazol-1-yl) propanenitrile]
TYK2/JAK1/JAK2 inhibition (in words) (TYK2/JAK1/JAK2): potent TYK2/JAK1/JAK2 inhibitors
systemic exposure and skin distribution (in words) ([6]; topical administration): minimal systemic exposure and enrichment in dermis and epidermis

IC50 (TYK2 [1]): < 1 nM
IC50 (JAK1 [2]): < 1 nM
IC50 (JAK2): < 1 nM
IC50 (JAK3): > 10 nM
IC50 (JAK1 [4]): < 500 nM
SMILES: CCS(=O)(=O)N1CC(CC#N)(n2cc(-c3nc(Nc4cnn(C)c4)ncc3C)cn2)C1 [Compound 18, 2-(1-(ethylsulfonyl)-3-(4-(5-methyl-2-((1-methyl-1H-pyrazol-4-yl)amino)pyrimidin-4-yl)-1H-pyrazol-1-yl)azetidin-3-yl)acetonitrile]
TYK2/JAK1/JAK2 inhibition (in words) (TYK2/JAK1/JAK2): potent TYK2/JAK1/JAK2 inhibitors

SMILES: CNC(=O)c1nnc(NC(=O)C2CC2)cc1Nc1cccc(-c2ncn(C)n2)c1OC [deucravacitinib]
Phase 2 and Phase 3 results in patients with psoriasis (psoriasis): positive Phase 2 and Phase 3 results

SMILES: N#CC[C@H](C1CCCC1)n1cc(-c2ncnc3[nH]ccc23)cn1 [ruxolitinib]
Cmax [7]: 449 ± 883 nM
